The values below come from patent US20250382346A1, “NEURONAL PROMOTERS AND USES THEREOF” (priority 2023, published 2025).

The target of the assay is T1, hM3Dq (Homo sapiens, UniProt P20309, A239G/Y149C).
T1 construct: expressed in transfected cells; host or cells: neurons of C57BL/6J mice or of macaques, transduced in vivo by nigral AAV8R12-G88P3-HA-hM3Dq
Briefly: Striatal slice whole-cell recordings of retrogradely labeled D1-MSNs, hM3Dq. It counts as cell-based, mice. The following applies: AAV8R12-G88P3-HA-hM3Dq-2A-EYFP; CNO 10 μM; basal firing rate and resting membrane potential unaffected. An excerpt: Mice from different groups were anesthetized with […] isoflurane, and then decapitated. The brain was quickly extracted and placed in ice-cold N-methyl-D-glucamine (NMDG) cutting solution containing (in mM): 92 NMDG, 2.5 KCl, 25 NaHCO3, 1.25 NaH2PO4, 4.5 D-Glucose, 20 HEPES, 5 L-ascorbic acid, 3 Na-pyruvate, 2 Thiourea, 10 MgSO4, 0.5 CaCl2). The pH was adjusted to 7.2±0.1 using HCl and the osmolarity was adjusted to 305±5 mosmol/L using NMDG. The solution was bubbled with 95% O2/5% CO2 prior to use. Coronal striatum slices were cut in 250-[…]m thickness with a vibratome slicer (Leica, VT1200 S), and then incubated in artificial cerebrospinal fluid (aCSF) saturated with 95% O2/5% CO2 for at least 45 min at 37° C. before recording. The aCSF contains (in mM) 125 NaCl, 1.25 KCl, 25 NaHCO3, 1.25 KH2PO4, 25 D-Glucose, 2 CaCl2) and 1 MgCl2, supplemented with 2 mM Na-pyruvate, 3 mM Myo-inositol and 0.4 mM L-ascorbic acid.
The acute striatum slice was transferred to the recording chamber with a constant perfusion of oxygenized aCSF at the rate of 3 ml/min. Neurons were visualized using an upright microscope (Olympus, BX-51) with a 40× water immersion objective at room temperature (˜25° C.). […] Neurons were quickly visualized under fluorescence microscope and then patch clamp were achieved under infrared light illumination and CCD camera. […]

T1 sequence (P20309 whole entry Y149C/A239G): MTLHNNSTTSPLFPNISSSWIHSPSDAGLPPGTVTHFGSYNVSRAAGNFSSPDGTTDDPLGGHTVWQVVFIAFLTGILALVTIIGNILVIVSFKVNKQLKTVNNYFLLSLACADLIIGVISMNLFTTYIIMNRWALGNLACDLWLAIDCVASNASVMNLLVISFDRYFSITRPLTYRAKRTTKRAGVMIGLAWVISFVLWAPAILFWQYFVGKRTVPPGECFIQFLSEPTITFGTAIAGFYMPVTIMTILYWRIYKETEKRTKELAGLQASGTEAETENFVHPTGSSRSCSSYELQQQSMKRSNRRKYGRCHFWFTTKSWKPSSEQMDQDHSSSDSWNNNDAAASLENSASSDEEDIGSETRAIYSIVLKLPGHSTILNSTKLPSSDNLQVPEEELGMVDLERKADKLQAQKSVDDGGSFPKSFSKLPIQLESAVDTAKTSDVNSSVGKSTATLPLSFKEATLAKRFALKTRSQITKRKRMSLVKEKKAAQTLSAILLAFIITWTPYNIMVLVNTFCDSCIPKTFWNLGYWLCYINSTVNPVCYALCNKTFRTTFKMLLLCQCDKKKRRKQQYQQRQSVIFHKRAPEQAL

Consider `C[N+]1([O-])CCN(C2=Nc3cc(Cl)ccc3Nc3ccccc32)CC1` [CNO, Clozapine-N-oxide], for which the “excitability of transduced MSNs upon CNO” value is listed as “augmentation of excitability”.
